Results on 14 compounds are retold here after patent publication US9346815B2, “5-chloro-2-difluoromethoxyphenyl pyrazolopyrimidine compounds, compositions and methods of use thereof” (Genentech, Inc., priority 2014, dated 2016).

Series [1] deals with JAK1-dependent STAT6 phosphorylation downstream of IL-13 stimulation in BEAS-2B human bronchial epithelial cells. Put plainly: JAK1 pathway assay in BEAS-2B cells (IL-13-pSTAT6, MSD). It is filed as cell-based. As to conditions: read-out: IL13-pSTAT6 EC50 (uM)_BEAS-2B. In outline: (§1)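 TF-1 cells starved of GM-CSF overnight, assayed serum-free; BEAS-2B cells in complete growth medium. Lysate pSTAT6 measured by MSD; EC50 derived.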

The target of series [2] is isolated recombinant JAK2 kinase domain (Homo sapiens (Human), UniProt O60674). Put plainly: JAK2 enzyme assay (Caliper LabChip, peptide phosphorylation). The settings on record: 25 μM ATP. It is filed as biochemical.
Chain of isolated recombinant JAK2 kinase domain (O60674 849-1124): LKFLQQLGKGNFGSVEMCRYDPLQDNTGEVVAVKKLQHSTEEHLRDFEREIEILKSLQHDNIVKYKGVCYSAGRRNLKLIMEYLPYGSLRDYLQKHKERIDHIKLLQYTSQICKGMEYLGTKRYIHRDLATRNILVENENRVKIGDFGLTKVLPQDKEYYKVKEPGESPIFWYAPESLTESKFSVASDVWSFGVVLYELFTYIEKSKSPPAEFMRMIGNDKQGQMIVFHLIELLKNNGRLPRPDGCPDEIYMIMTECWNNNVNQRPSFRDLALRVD
Series [3] concerns JAK1-dependent STAT6 phosphorylation downstream of IL-13 stimulation in TF-1 human erythroleukemia cells. Put plainly: JAK1 pathway assay in TF-1 cells (IL-13-pSTAT6, MSD). Format: cell-based. As to conditions: Homo sapiens, TF-1, TF-1 cells, read-out: IL13-pSTAT6 EC50_TF-1. In outline:
as §1

Series [4] concerns the target isolated recombinant JAK1 kinase domain (Homo sapiens (Human), UniProt P23458). Put plainly: JAK1 enzyme assay (Caliper LabChip, peptide phosphorylation). It is filed as biochemical. The settings on record: isolated recombinant JAK1 kinase domain, 25 μM ATP.
Series [5] in a line: Clearance assay: mouse intravenous (IV) clearance. Format: in vivo. As to conditions: female BALB/c mice; for IV Mouse CL, % of liver blood flow: single IV dose of 1 mg/kg, clearance as % of mouse liver blood flow; for clearance: mouse, plasma, single IV dose of 1 mg/kg via the tail vein, read-out: IV Mouse CL. From the text:
In certain instances high systemic clearance of a drug substance may be of benefit. For example, in the treatment of pulmonary diseases it may be beneficial to have high drug concentrations in the lung, with lower concentrations in the bloodstream or peripheral organs. In such cases, it may be advantageous to administer a drug substance with high systemic clearance via the inhaled delivery route. This approach may maximize pharmacologic activity of the drug substance in the lung while minimizing the possibility of on-target toxicity elsewhere in the body. The functional groups appended to the 5-chloro-2-difluoromethoxyphenyl pyrazolopyrimidine scaffold affect systemic clearance.
Female BALB/c mice were obtained from Charles River Labs (Hollister, Calif. USA). Twelve animals were given a single IV dose of 1 mg/kg of compounds via the tail vein. A representative dose solution was prepared as follows: the compound was dissolved in a mixture of 5% dimethylsulfoxide (DMSO), 35% polyethylene glycol (PEG 400), and 60% water (v/v/v), respectively, and administered at a dosing volume of 5 mL/kg. Mice weighed approximately 20-25 g at the start of the study. After intravenous administration of compounds, each animal was bled twice via retro-orbital and cardiac puncture. PK time points were collected at 2 min, 5 min, 15 min, 30 min, 1 hr, 2 hr, 4 hr, and 8 hr post-dose. Plasma samples were stored at approximately −80° C. until thawed for LC-MS/MS analysis. PK data analysis was performed on mean plasma concentration-time data and PK parameters were determined by non compartmental methods using WinNonlin® Enterprise, version 5.2.1 (Pharsight Corporation; Mountain View, Calif.).

By Ki is commonly meant the equilibrium dissociation constant of an inhibitor or competing ligand from its target.

Chain of isolated recombinant JAK1 kinase domain (P23458 875-1153): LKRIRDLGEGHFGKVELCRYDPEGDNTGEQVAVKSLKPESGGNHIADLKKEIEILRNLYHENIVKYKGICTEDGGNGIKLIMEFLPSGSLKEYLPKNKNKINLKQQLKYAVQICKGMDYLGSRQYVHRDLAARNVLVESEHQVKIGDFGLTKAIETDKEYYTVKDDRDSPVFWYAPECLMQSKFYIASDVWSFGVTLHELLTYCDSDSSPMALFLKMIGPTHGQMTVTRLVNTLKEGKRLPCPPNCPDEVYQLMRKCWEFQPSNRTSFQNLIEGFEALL

Regarding `Nc1nn2cccnc2c1C(=O)Nc1cn(C2CCNCC2)nc1-c1cc(Cl)ccc1OC(F)F` [Example 2, 2-Amino-pyrazolo[1,5-a]pyrimidine-3-carboxylic acid [3-(5-chloro-2-difluoromethoxy-phenyl)-1-piperidin-4-yl-1H-pyrazol-4-yl]-amide], the EC50 worked out at 0.0195 µM in series [1] and 5.2 nM in series [3]. For the same compound, the inhibitory constant (Ki) in series [2] turned out to be 0.19 nM; in series [4] it was 0.72 nM. The “IV Mouse CL, % of liver blood flow” value in series [5] is over 100%. Further, in series [5], the clearance was found to be 580 mL/min/kg.
Turning to `CN1C[C@@H]2CN(C(=O)Cn3cc(NC(=O)c4cnn5cccnc45)c(-c4cc(Cl)ccc4OC(F)F)n3)C[C@@H]2C1` [Example 3, Cis-pyrazolo[1,5-a]pyrimidine-3-carboxylic acid {3-(5-chloro-2-difluoromethoxyphenyl)1-[2-(5-methylhexahydropyrrolo[3,4-c]pyrrol-2-yl)-2-oxoethyl]-1H-pyrazol-4-yl}amide], the EC50 in series [1] was 0.0324 µM; in series [3] it was 16.7 nM. The results for the Ki in series [2] and in series [4] were 0.81 nM and 0.79 nM, respectively. Moreover, in series [5], the “IV Mouse CL, % of liver blood flow” value was over 100%. Also, in series [5], the clearance was 216 mL/min/kg.
In the case of `CN(CCC#N)C1CCN(C(=O)Cn2cc(NC(=O)c3cnn4cccnc34)c(-c3cc(Cl)ccc3OC(F)F)n2)CC1` [Example 63, Pyrazolo[1,5-a]pyrimidine-3-carboxylic acid [3-(5-chloro-2-difluoromethoxy-phenyl)-1-(2-{4-[(2-cyano-ethyl)-methyl-amino]-piperidin-1-yl}-2-oxo-ethyl)-1H-pyrazol-4-yl]-amide], the EC50 was 0.0122 µM in series [1] and 5.7 nM in series [3]. Further, the Ki in series [2] is 0.7 nM; in series [4], 0.34 nM. Besides, in series [5], the “IV Mouse CL, % of liver blood flow” value is reported as over 100%. In addition, the clearance in series [5] stood at 139 mL/min/kg.
For the compound `CN(C)C1CCN(C(=O)Cn2cc(NC(=O)c3cnn4cccnc34)c(-c3cc(Cl)ccc3OC(F)F)n2)CC1` [Example 67, N-[3-[5-chloro-2-(difluoromethoxy)phenyl]-1-[2-[4-(dimethylamino)-1-piperidyl]-2-oxo-ethyl]pyrazol-4-yl]pyrazolo[1,5-a]pyrimidine-3-carboxamide], the EC50 in series [1] is 0.0715 µM; in series [3] it was 14.6 nM. Besides, the Ki in series [4] came out at 0.89 nM. The “IV Mouse CL, % of liver blood flow” value in series [5] was over 100%. Also, the clearance in series [5] is 205 mL/min/kg.
In the case of `CN(CCc1ccccc1)C1CCN(C(=O)Cn2cc(NC(=O)c3cnn4cccnc34)c(-c3cc(Cl)ccc3OC(F)F)n2)CC1` [Example 85, N-[3-[5-chloro-2-(difluoromethoxy)phenyl]-1-[2-[4-[methyl(2-phenylethyl)amino]-1-piperidyl]-2-oxo-ethyl]pyrazol-4-yl]pyrazolo[1,5-a]pyrimidine-3-carboxamide], the EC50 is 0.1 µM in series [1] and 15.3 nM in series [3]. Also, the values for the inhibition constant (Ki) in series [2] and in series [4] were 1.66 nM and 0.86 nM, respectively. In series [5], the “IV Mouse CL, % of liver blood flow” value worked out at 61%. In addition, the clearance in series [5] is 55 mL/min/kg.
On to `CN(Cc1ccccc1)C1CCN(C(=O)Cn2cc(NC(=O)c3cnn4cccnc34)c(-c3cc(Cl)ccc3OC(F)F)n2)CC1` [Example 98, N-[1-[2-[4-[benzyl(methyl)amino]-1-piperidyl]-2-oxo-ethyl]-3-[5-chloro-2-(difluoromethoxy)phenyl]pyrazol-4-yl]pyrazolo[1,5-a]pyrimidine-3-carboxamide], for which the EC50 is 0.0381 µM in series [1] and 3.8 nM in series [3]. The figures for the Ki in series [2] and in series [4] were 1.81 nM and 0.79 nM, respectively. Also, the “IV Mouse CL, % of liver blood flow” value in series [5] is over 100%. In addition, the clearance in series [5] came out at 178 mL/min/kg.
In the case of `O=C(Nc1cn(CC(=O)N2CCC(O)CC2)nc1-c1cc(Cl)ccc1OC(F)F)c1cnn2cccnc12` [Example 278, N-[3-[5-chloro-2-(difluoromethoxy)phenyl]-1-[2-(4-hydroxy-1-piperidyl)-2-oxo-ethyl]pyrazol-4-yl]pyrazolo[1,5-a]pyrimidine-3-carboxamide], the EC50 in series [1] stood at 0.005 µM. Besides, the Ki is 0.63 nM in series [2] and 0.24 nM in series [4]. Moreover, the “IV Mouse CL, % of liver blood flow” value in series [5] is on record as over 100%. The clearance in series [5] came to 133 mL/min/kg.
Taken in the same sequence, the figures for `O=C(Nc1cn(CCNCc2ccccc2)nc1-c1cc(Cl)ccc1OC(F)F)c1cnn2cccnc12` [Example 313, N-[1-[2-(benzylamino)ethyl]-3-[5-chloro-2-(difluoromethoxy)phenyl]-1H-pyrazol-4-yl]pyrazolo[1,5-a]pyrimidine-3-carboxamide] were 0.0218 µM, 0.21 nM, 0.21 nM, 57% and 51 mL/min/kg.
Taken in the same sequence, the figures for `CN(C)CCOC(=O)C1CCN(C(=O)Cn2cc(NC(=O)c3cnn4cccnc34)c(-c3cc(Cl)ccc3OC(F)F)n2)CC1` [Example 338, 2-(dimethylamino)ethyl 1-(2-[3-[5-chloro-2-(difluoromethoxy)phenyl]-4-[pyrazolo[1,5-a]pyrimidine-3-amido]-1H-pyrazol-1-yl]acetyl)piperidine-4-carboxylate] were 0.0177 µM, 1.16 nM, 0.36 nM, over 100% and over 200 mL/min/kg.
For `O=C(Nc1cn(CC(=O)N2CCC(CN3CCOCC3)CC2)nc1-c1cc(Cl)ccc1OC(F)F)c1cnn2cccnc12` [Example 348, N-[3-[5-chloro-2-(difluoromethoxy)phenyl]-1-[2-[4-(morpholin-4-ylmethyl)piperidin-1-yl]-2-oxoethyl]-1H-pyrazol-4-yl]pyrazolo[1,5-a]pyrimidine-3-carboxamide], in that order: 0.012 µM, 1.02 nM, 0.4 nM, over 100% and 143 mL/min/kg.
As for `CSCCN1CCN(C(=O)Cn2cc(NC(=O)c3cnn4cccnc34)c(-c3cc(Cl)ccc3OC(F)F)n2)CC1` [Example 372, N-[3-[5-chloro-2-(difluoromethoxy)phenyl]-1-(2-[4-[2-(methylsulfanyl)ethyl]piperazin-1-yl]-2-oxoethyl)-1H-pyrazol-4-yl]pyrazolo[1,5-a]pyrimidine-3-carboxamide], the EC50 in series [1] is 0.0197 µM. Further, the Ki in series [2] came out at 0.51 nM; in series [4], 0.25 nM. In addition, the “IV Mouse CL, % of liver blood flow” value in series [5] is reported as over 100%. Further, the clearance in series [5] was 93 mL/min/kg.
`CCOC(=O)CN1CCN(C(=O)Cn2cc(NC(=O)c3cnn4cccnc34)c(-c3cc(Cl)ccc3OC(F)F)n2)CC1` [Example 397, ethyl 2-[4-(2-[3-[5-chloro-2-(difluoromethoxy)phenyl]-4-[pyrazolo[1,5-a]pyrimidine-3-amido]-1H-pyrazol-1-yl]acetyl)piperazin-1-yl]acetate]: the EC50 in series [1] came to 0.027 µM. Also, the inhibition constant (Ki) in series [2] was 0.77 nM. In series [5], the “IV Mouse CL, % of liver blood flow” value is reported as over 100% and the clearance stood at 141 mL/min/kg.
As to `CC(C)(C#N)CNC1CCN(C(=O)Cn2cc(NC(=O)c3cnn4cccnc34)c(-c3cc(Cl)ccc3OC(F)F)n2)CC1` [Example 466, N-(3-(5-chloro-2-(difluoromethoxy)phenyl)-1-(2-(4-(2-cyano-2-methyl-propylamino)piperidin-1-yl)-2-oxoethyl)-1H-pyrazol-4-yl)pyrazolo[1,5-a]pyrimidine-3-carboxamide], in series [1], the EC50 was found to be 0.014 µM. Besides, the Ki in series [2] stood at 0.74 nM. Moreover, the inhibitory constant (Ki) in series [4] was 0.27 nM. For the same compound, in series [5], the “IV Mouse CL, % of liver blood flow” value amounted to 80% and the clearance turned out to be 72 mL/min/kg.
Taken in the same sequence, the figures for `N#CC1(CNC2CCN(C(=O)Cn3cc(NC(=O)c4cnn5cccnc45)c(-c4cc(Cl)ccc4OC(F)F)n3)CC2)CC1` [Example 468, N-(3-(5-chloro-2-(difluoromethoxy)phenyl)-1-(2-(4-(((1-cyanocyclopropyl)methyl)amino)piperidin-1-yl)-2-oxoethyl)-1H-pyrazol-4-yl)pyrazolo[1,5-a]pyrimidine-3-carboxamide] were 0.006 µM, 0.92 nM, 0.36 nM, over 100% and 140 mL/min/kg.
